{"source": "patent US10519177B2", "about": "“Heterocyclic compounds and uses thereof” (Plexxikon Inc., priority 2013, dated 2019)", "key": {"bromodomain": {"system": "bromodomain", "assay": "at least one of the bromodomain cell assays of Example 57", "type": "cell-based", "settings": "at least one of the bromodomain cell assays described in Example 57; read-out: IC50 in at least one of the bromodomain cell assays"}, "MV-4-11 cells": {"system": "MV-4-11 cells", "assay": "Oncology cell growth assay MV-4-11 (CellTiter Glo)", "type": "cell-based", "settings": "Homo sapiens, MV4-11, 72 h; MV-4-11, 3d growth; read-out: Cell activity (IC50 μM) MV-4-11 3d-Growth", "outline": "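Growth read by CellTiter Glo luminescence after 72 h compound treatment of MLL-AF4-bearing MV-4-11 cells (3000/well). Titration: 8 points, 1:3 steps, maximum 10 μM, 0.2% DMSO final. Data normalized to DMSO wells, four-parameter fit gives pIC50.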"}, "BRD4-BD12 (1-477)": {"target": "BRD4-BD12 (1-477) (Homo sapiens (Human), UniProt O60885)", "assay": "Alphascreen binding assay BRD4-BD12", "settings": "BRD4(1 2) H4; read-out: Biochemical activity (IC50 μM) BRD4(1 2) H4", "outline": "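In this competition format, compounds displace a biotinylated tetra-acetyl H4 peptide from E. coli-expressed human BRD4 bromodomain constructs captured on nickel chelate beads. The reaction runs at pH 7.5 with 2 mM DTT and detergent for 1 h at room temperature before a 30 min bead step.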"}}}
{"smiles": "Cc1noc(C)c1-c1cnc2c(-c3ccc(CC(=O)O)cc3)cn(CC3CCCCC3)c2c1", "note": "[P-0590, 2-[4-[1-(cyclohexylmethyl)-6-(3,5-dimethylisoxazol-4-yl)pyrrolo[3,2-b]pyridin-3-yl]phenyl]acetic acid]", "values": [{"measurement": "IC50", "setting": "bromodomain", "value": "< 10000", "unit": "nM"}, {"measurement": "IC50", "setting": "MV-4-11 cells", "value": "< 1", "unit": "µM"}, {"measurement": "IC50", "setting": "BRD4-BD12 (1-477)", "value": "< 1", "unit": "µM"}]}
{"smiles": "Cc1noc(C)c1-c1cnc2c(-c3ccc(CC(=O)O)cc3)cn(CC3CCCC3)c2c1", "note": "[P-0591, 2-[4-[1-(cyclopentylmethyl)-6-(3,5-dimethylisoxazol-4-yl)pyrrolo[3,2-b]pyridin-3-yl]phenyl]acetic acid]", "values": [{"measurement": "IC50", "setting": "bromodomain", "value": "< 10000", "unit": "nM"}, {"measurement": "IC50", "setting": "MV-4-11 cells", "value": "< 1", "unit": "µM"}, {"measurement": "IC50", "setting": "BRD4-BD12 (1-477)", "value": "< 1", "unit": "µM"}]}
{"smiles": "Cc1noc(C)c1-c1cnc2c(-c3ccc(C#N)cc3)cn(C(c3ccccn3)c3ccccn3)c2c1", "note": "[P-0592, 4-[1-[bis(2-pyridyl)methyl]-6-(3,5-dimethylisoxazol-4-yl)pyrrolo[3,2-b]pyridin-3-yl]benzonitrile]", "values": [{"measurement": "IC50", "setting": "bromodomain", "value": "< 10000", "unit": "nM"}, {"measurement": "IC50", "setting": "MV-4-11 cells", "value": "< 1", "unit": "µM"}, {"measurement": "IC50", "setting": "BRD4-BD12 (1-477)", "value": "< 1", "unit": "µM"}]}
{"smiles": "Cc1noc(C)c1-c1cnc2c(-c3cnn(C)c3)cn(C(c3ccccn3)c3ccccn3)c2c1", "note": "[P-0593, 4-[1-[bis(2-pyridyl)methyl]-3-(1-methylpyrazol-4-yl)pyrrolo[3,2-b]pyridin-6-yl]-3,5-dimethyl-isoxazole]", "values": [{"measurement": "IC50", "setting": "bromodomain", "value": "< 10000", "unit": "nM"}, {"measurement": "IC50", "setting": "MV-4-11 cells", "value": "< 1", "unit": "µM"}, {"measurement": "IC50", "setting": "BRD4-BD12 (1-477)", "value": "< 1", "unit": "µM"}]}
{"smiles": "Cc1noc(C)c1-c1cnc2c(-c3ccc(C#N)nc3)cn(CC3CCC(F)(F)CC3)c2c1", "note": "[P-0594, 5-[1-[(4,4-difluorocyclohexyl)methyl]-6-(3,5-dimethylisoxazol-4-yl)pyrrolo[3,2-b]pyridin-3-yl]pyridine-2-carbonitrile]", "values": [{"measurement": "IC50", "setting": "bromodomain", "value": "< 10000", "unit": "nM"}, {"measurement": "IC50", "setting": "MV-4-11 cells", "value": "< 1", "unit": "µM"}, {"measurement": "IC50", "setting": "BRD4-BD12 (1-477)", "value": "< 1", "unit": "µM"}]}
{"smiles": "Cc1noc(C)c1-c1cnc2c(-c3ccc(C#N)nc3)cn([C@@H](C)c3ccccn3)c2c1", "note": "[P-0595, 5-[6-(3,5-dimethylisoxazol-4-yl)-1-[(1S)-1-(2-pyridyl)ethyl]pyrrolo[3,2-b]pyridin-3-yl]pyridine-2-carbonitrile]", "values": [{"measurement": "IC50", "setting": "bromodomain", "value": "< 10000", "unit": "nM"}, {"measurement": "IC50", "setting": "MV-4-11 cells", "value": "< 1", "unit": "µM"}, {"measurement": "IC50", "setting": "BRD4-BD12 (1-477)", "value": "< 1", "unit": "µM"}]}
{"smiles": "Cc1noc(C)c1-c1cnc2c(-c3ccc(B(O)O)cc3)cn(CC3CCC(F)(F)CC3)c2c1", "note": "[P-0596, [4-[1-[(4,4-difluorocyclohexyl)methyl]-6-(3,5-dimethylisoxazol-4-yl)pyrrolo[3,2-b]pyridin-3-yl]phenyl]boronic acid]", "values": [{"measurement": "IC50", "setting": "bromodomain", "value": "< 10000", "unit": "nM"}, {"measurement": "IC50", "setting": "MV-4-11 cells", "value": "< 1", "unit": "µM"}, {"measurement": "IC50", "setting": "BRD4-BD12 (1-477)", "value": "< 1", "unit": "µM"}]}
{"smiles": "Cc1noc(C)c1-c1cnc2c(-c3ccc(C#N)nc3)cn(C(c3ccccn3)c3ccccn3)c2c1", "note": "[P-0597, 5-[1-[bis(2-pyridyl)methyl]-6-(3,5-dimethylisoxazol-4-yl)pyrrolo[3,2-b]pyridin-3-yl]pyridine-2-carbonitrile]", "values": [{"measurement": "IC50", "setting": "bromodomain", "value": "< 10000", "unit": "nM"}, {"measurement": "IC50", "setting": "MV-4-11 cells", "value": "< 1", "unit": "µM"}, {"measurement": "IC50", "setting": "BRD4-BD12 (1-477)", "value": "< 1", "unit": "µM"}]}
{"smiles": "Cc1noc(C)c1-c1cnc2c(-c3ccc([N+](=O)[O-])cc3)cn(CC3CCC(F)(F)CC3)c2c1", "note": "[P-0598, 4-[1-[(4,4-difluorocyclohexyl)methyl]-3-(4-nitrophenyl)pyrrolo[3,2-b]pyridin-6-yl]-3,5-dimethyl-isoxazole]", "values": [{"measurement": "IC50", "setting": "bromodomain", "value": "< 10000", "unit": "nM"}, {"measurement": "IC50", "setting": "MV-4-11 cells", "value": "< 1", "unit": "µM"}, {"measurement": "IC50", "setting": "BRD4-BD12 (1-477)", "value": "< 1", "unit": "µM"}]}
{"smiles": "Cc1noc(C)c1-c1cnc2c(-c3ccc([N+](=O)[O-])nc3)cn(CC3CCC(F)(F)CC3)c2c1", "note": "[P-0599, 4-[1-[(4,4-difluorocyclohexyl)methyl]-3-(6-nitro-3-pyridyl)pyrrolo[3,2-b]pyridin-6-yl]-3,5-dimethyl-isoxazole]", "values": [{"measurement": "IC50", "setting": "bromodomain", "value": "< 10000", "unit": "nM"}, {"measurement": "IC50", "setting": "MV-4-11 cells", "value": "< 1", "unit": "µM"}, {"measurement": "IC50", "setting": "BRD4-BD12 (1-477)", "value": "< 1", "unit": "µM"}]}
{"smiles": "Cc1noc(C)c1-c1cnc2c(-c3ccc(C=O)cc3)cn(CC3CCC(F)(F)CC3)c2c1", "note": "[P-0600, 4-[1-[(4,4-difluorocyclohexyl)methyl]-6-(3,5-dimethylisoxazol-4-yl)pyrrolo[3,2-b]pyridin-3-yl]benzaldehyde]", "values": [{"measurement": "IC50", "setting": "bromodomain", "value": "< 10000", "unit": "nM"}, {"measurement": "IC50", "setting": "MV-4-11 cells", "value": "< 1", "unit": "µM"}, {"measurement": "IC50", "setting": "BRD4-BD12 (1-477)", "value": "< 1", "unit": "µM"}]}
{"smiles": "Cc1noc(C)c1-c1cnc2c(-c3ccc(CO)cc3)cn(CC3CCC(F)(F)CC3)c2c1", "note": "[P-0601, [4-[1-[(4,4-difluorocyclohexyl)methyl]-6-(3,5-dimethylisoxazol-4-yl)pyrrolo[3,2-b]pyridin-3-yl]phenyl]methanol]", "values": [{"measurement": "IC50", "setting": "bromodomain", "value": "< 10000", "unit": "nM"}, {"measurement": "IC50", "setting": "MV-4-11 cells", "value": "< 1", "unit": "µM"}, {"measurement": "IC50", "setting": "BRD4-BD12 (1-477)", "value": "< 1", "unit": "µM"}]}
